# Assay results published in patent US10590113B2, “6-hydroxy-4-oxo-1,4-dihydropyrimidine-5-carboxamides as APJ agonists” (priority 2016, dated 2020).
# Molecular target: T1, human APJ receptor (Homo sapiens, UniProt P35414)
# T1 construct: expressed in transfected cells; host or cells: HEK293
# T1 sequence (P35414 1-380): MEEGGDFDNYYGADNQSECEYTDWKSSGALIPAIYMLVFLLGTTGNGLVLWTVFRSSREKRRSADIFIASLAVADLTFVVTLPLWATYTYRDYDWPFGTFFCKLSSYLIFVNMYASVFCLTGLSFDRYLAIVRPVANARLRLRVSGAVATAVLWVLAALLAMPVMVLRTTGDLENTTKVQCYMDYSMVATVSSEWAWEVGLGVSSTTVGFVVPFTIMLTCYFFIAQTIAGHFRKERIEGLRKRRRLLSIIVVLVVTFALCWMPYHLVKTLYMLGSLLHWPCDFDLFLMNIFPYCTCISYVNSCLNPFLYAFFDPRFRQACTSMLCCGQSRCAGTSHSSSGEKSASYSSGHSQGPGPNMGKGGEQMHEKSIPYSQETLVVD
# Experiment: Intracellular cAMP Accumulation Assay (APJ hcAMP, HTRF)
# Format: cell-based
# Settings: human APJ, cAMP accumulation; potency range class; read-out: hAPJ cAMP EC50 Potency range
# Procedure, shortened: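 Stably transfected HEK293 cells (5,000/well) incubated 30 min at room temperature with serially diluted compound, […] and 2 μM forskolin. cAMP measured by HTRF after 60 min with detection reagents, quantified against a cAMP standard curve; EC50 from variable-slope sigmoidal fit of inhibition of forskolin-stimulated cAMP.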
row,SMILES,EC50
1,"COc1cccc(OC)c1-n1c(-c2ccc(F)c(C)c2)nc(=O)c(C(=O)N2CCC(c3ncccc3F)C2)c1O (single isomer, unassigned) [Example 255, 1-(2,6-dimethoxyphenyl)-2-(4-fluoro-3-methylphenyl)-5-[3-(3-fluoropyridin-2-yl)pyrrolidine-1-carbonyl]-6-hydroxy-1,4-dihydropyrimidin-4-one]",0.01 to 10 nM
2,"COc1cccc(OC)c1-n1c(-c2ccc(F)c(C)c2)nc(=O)c(C(=O)N2CCC(c3ncc(F)cc3F)C2)c1O (single isomer, unassigned) [Example 256, 5-[3-(3,5-difluoropyridin-2-yl)pyrrolidine-1-carbonyl]-1-(2,6-dimethoxyphenyl)-2-(4-fluoro-3-methylphenyl)-6-hydroxy-1,4-dihydropyrimidin-4-one]",0.01 to 10 nM
3,"COc1cccc(OC)c1-n1c(-c2ccnc(C)c2)nc(=O)c(C(=O)N2CCC(c3c(F)cccc3F)C2)c1O (single isomer, unassigned) [Example 257, 5-[3-(2,6-difluorophenyl)pyrrolidine-1-carbonyl]-1-(2,6-dimethoxyphenyl)-6-hydroxy-2-(2-methylpyridin-4-yl)-1,4-dihydropyrimidin-4-one]",0.01 to 10 nM
4,"COc1cccc(OC)c1-n1c(-c2ccn(C)n2)nc(=O)c(C(=O)N2CCC(c3ncc(Cl)cc3F)C2)c1O (single isomer, unassigned) [Example 259, 5-[3-(5-chloro-3-fluoropyridin-2-yl)pyrrolidine-1-carbonyl]-1-(2,6-dimethoxyphenyl)-6-hydroxy-2-(1-methyl-1H-pyrazol-3-yl)-1,4-dihydropyrimidin-4-one]",0.01 to 10 nM
5,"COc1cccc(OC)c1-n1c(-c2cncc(Cl)c2)nc(=O)c(C(=O)N2CCC(c3ccc(F)cc3F)C2)c1O (single isomer, unassigned) [Example 260, 2-(5-chloropyridin-3-yl)-5-[3-(2,4-difluorophenyl)pyrrolidine-1-carbonyl]-1-(2,6-dimethoxyphenyl)-6-hydroxy-1,4-dihydropyrimidin-4-one]",0.01 to 10 nM
6,"COc1cccc(-c2nc(=O)c(C(=O)N3CCC(c4ncc(Cl)cc4F)C3)c(O)n2-c2c(OC)cccc2OC)c1 (single isomer, unassigned) [Example 261, 5-[3-(5-chloro-3-fluoropyridin-2-yl)pyrrolidine-1-carbonyl]-1-(2,6-dimethoxyphenyl)-6-hydroxy-2-(3-methoxyphenyl)-1,4-dihydropyrimidin-4-one]",0.01 to 10 nM
7,"COc1cccc(OC)c1-n1c(-c2cc(C)ccn2)nc(=O)c(C(=O)N2CCC(c3ccc(F)cc3F)C2)c1O (single isomer, unassigned) [Example 262, 5-[3-(2,4-difluorophenyl)pyrrolidine-1-carbonyl]-1-(2,6-dimethoxyphenyl)-6-hydroxy-2-(4-methylpyridin-2-yl)-1,4-dihydropyrimidin-4-one]",0.01 to 10 nM
8,"COc1cccc(OC)c1-n1c(-c2cccc(C)c2)nc(=O)c(C(=O)N2CCC(c3ncc(Cl)cc3F)C2)c1O (single isomer, unassigned) [Example 263, 5-[3-(5-chloro-3-fluoropyridin-2-yl)pyrrolidine-1-carbonyl]-1-(2,6-dimethoxyphenyl)-6-hydroxy-2-(3-methylphenyl)-1,4-dihydropyrimidin-4-one]",0.01 to 10 nM
9,"COc1cccc(OC)c1-n1c(-c2cccc(Cl)c2)nc(=O)c(C(=O)N2CCC(c3ncc(Cl)cc3F)C2)c1O (single isomer, unassigned) [Example 264, 5-[3-(5-chloro-3-fluoropyridin-2-yl)pyrrolidine-1-carbonyl]-2-(3-chlorophenyl)-1-(2,6-dimethoxyphenyl)-6-hydroxy-1,4-dihydropyrimidin-4-one]",0.01 to 10 nM
10,"COc1cccc(OC)c1-n1c(-c2ccc(F)cc2)nc(=O)c(C(=O)N2CCC(c3ncc(Cl)cc3F)C2)c1O (single isomer, unassigned) [Example 265, 5-[3-(5-chloro-3-fluoropyridin-2-yl)pyrrolidine-1-carbonyl]-1-(2,6-dimethoxyphenyl)-2-(4-fluorophenyl)-6-hydroxy-1,4-dihydropyrimidin-4-one]",0.01 to 10 nM
11,"CCn1ccc(-c2nc(=O)c(C(=O)N3CCC(c4ccc(F)cc4F)C3)c(O)n2-c2c(OC)cccc2OC)n1 (single isomer, unassigned) [Example 269, 5-[3-(2,4-difluorophenyl)pyrrolidine-1-carbonyl]-1-(2,6-dimethoxyphenyl)-2-(1-ethyl-1H-pyrazol-3-yl)-6-hydroxy-1,4-dihydropyrimidin-4-one]",0.01 to 10 nM
12,"COc1cccc(OC)c1-n1c(-c2csc(C)n2)nc(=O)c(C(=O)N2CCC(c3c(F)cccc3F)C2)c1O (single isomer, unassigned) [Example 270, 5-[3-(2,6-difluorophenyl)pyrrolidine-1-carbonyl]-1-(2,6-dimethoxyphenyl)-6-hydroxy-2-(2-methyl-1,3-thiazol-4-yl)-1,4-dihydropyrimidin-4-one]",0.01 to 10 nM
13,"COc1cccc(OC)c1-n1c(-c2nc(C)cs2)nc(=O)c(C(=O)N2CCC(c3c(F)cccc3F)C2)c1O (single isomer, unassigned) [Example 271, 5-[3-(2,6-difluorophenyl)pyrrolidine-1-carbonyl]-1-(2,6-dimethoxyphenyl)-6-hydroxy-2-(4-methyl-1,3-thiazol-2-yl)-1,4-dihydropyrimidin-4-one]",0.01 to 10 nM
14,"CCc1cccc(CC)c1-n1c(-c2ccn(C)n2)nc(=O)c(C(=O)N2CCC(c3ccc(F)cc3)C2)c1O (single isomer, unassigned) [Example 272, 1-(2,6-diethylphenyl)-5-[3-(4-fluorophenyl)pyrrolidine-1-carbonyl]-6-hydroxy-2-(1-methyl-1H-pyrazol-3-yl)-1,4-dihydropyrimidin-4-one]",0.01 to 10 nM
15,"COc1ccnc(-c2nc(=O)c(C(=O)N3CCC(c4c(F)cccc4F)C3)c(O)n2-c2c(OC)cccc2OC)c1 (single isomer, unassigned) [Example 273, 5-[3-(2,6-difluorophenyl)pyrrolidine-1-carbonyl]-1-(2,6-dimethoxyphenyl)-6-hydroxy-2-(4-methoxypyridin-2-yl)-1,4-dihydropyrimidin-4-one]",0.01 to 10 nM
16,"COc1cccc(OC)c1-n1c(-c2ccc(C)cn2)nc(=O)c(C(=O)N2CCC(c3c(F)cccc3F)C2)c1O (single isomer, unassigned) [Example 274, 5-[3-(2,6-difluorophenyl)pyrrolidine-1-carbonyl]-1-(2,6-dimethoxyphenyl)-6-hydroxy-2-(5-methylpyridin-2-yl)-1,4-dihydropyrimidin-4-one]",0.01 to 10 nM
17,"CCn1ccc(-c2nc(=O)c(C(=O)N3CCC(c4c(F)cccc4F)C3)c(O)n2-c2c(OC)cccc2OC)n1 (single isomer, unassigned) [Example 276, 5-[3-(2,6-difluorophenyl)pyrrolidine-1-carbonyl]-1-(2,6-dimethoxyphenyl)-2-(1-ethyl-1H-pyrazol-3-yl)-6-hydroxy-1,4-dihydropyrimidin-4-one]",0.01 to 10 nM
18,"COc1ccnc(-c2nc(=O)c(C(=O)N3CCC(c4ccc(F)cc4F)C3)c(O)n2-c2c(OC)cccc2OC)c1 (single isomer, unassigned) [Example 278, 5-[3-(2,4-difluorophenyl)pyrrolidine-1-carbonyl]-1-(2,6-dimethoxyphenyl)-6-hydroxy-2-(4-methoxypyridin-2-yl)-1,4-dihydropyrimidin-4-one]",0.01 to 10 nM
